Patent US20260152777A1, “METHOD FOR PRODUCING EPIGALLOCATECHIN GALLATE MONOGLUCOSIDE” (GIVAUDAN SA, priority 2022, published 2026)

Assays:
[1] = test system: Asian volunteers with dull skin and large senescence spots; experiment: Clinical study: skin biomechanical properties by Cutometer (R0, firmness); format: in vivo, human; settings: for Firmness effect (R0) Mean +/− SD / Firmness effect (R0) Average variation (%) vs D 0: hemiface
Text: For this study, volunteers applied the cream twice a day for 56 days.
GLYCOL, DIMETHICONE, FRAGRANCE
Volunteers were divided into two groups as follows: • Group 1: 20 Asian women testing the active cream in comparison to the placebo cream with an average age of 54±5 years. • Group 2: 18 Asian women testing the vitamin C cream in comparison to the placebo cream with an average age of 53±8 years.
Volunteers applied a cream containing 0.4% of active, 2% of ascorbic acid (vitamin C), respectively, on one hemiface and a placebo cream on the other hemiface […] for 56 days.
During this study, a skin color and spots analysis was conducted using Colorface®, biomechanical properties were tested using Cutometery®, and the dermis thickness was determined using a DUB SkinScanner 75® probe (max. depth of 3.28 mm).
The analysis of the mechanical properties of the skin enables to assess the functional state of the following tissue structures: • The elastic structures, such as elastic fibers, curvature of the connective bundles, wrinkles of the stratum corneum; and • the viscous-behaving structures, such as interstitial fluids, internal adherences.
The study was performed using a Cutometer® MPA 580 (Courage & Khazaka). The measuring principle is based on the suction method: Negative pressure is created in the device and the skin is drawn into a cylindrical aperture (2 mm in diameter) of the probe. Inside the probe, the penetration depth is determined by an optical measuring system. Each suction phase is followed by a relaxing phase.
In the present study, the following program was used: • Length of the cycle: 4 seconds • Suction: 2 seconds • Relaxation: 2 seconds • Negative pressure: 450 millibars • Diameter of the chamber: 2 mm • Area measured: crow's feet
From these curves, the parameters can be calculated. • During the suction phase, the deformation of the skin by the negative pressure measures first the elastic resistance and then the viscous component, which taken together represent skin firmness. • During the relaxation phase, the immediate recovery of the skin measures sheer cutaneous elasticity, whereas the delayed return of the skin to its initial position measures the viscoelastic component.
This study focused on the R0 or Uf parameter, which represents the amplitude of the skin during the suction phase. At equal pressure, the more flexible the skin, the greater the amplitude. Thus R0 (or UF) will evaluate the viscoelastic dispensability, or in other words, the firmness of the skin.
These parameters were measured on D0, D28, D56.

human skin explants = experiment: Whitening activity (ex vivo), Fontana-Masson staining for melanin quantification; format: cell-based; settings: at 2%, topical, 7 days
Description: Fresh human skin explants were obtained from skin phototype III and VI donors, aged of 46±25 years. […] Kojic acid (Sigma-Aldrich) at 2% was topically applied and incubated under the same conditions, serving as positive control. The untreated condition was treated with the vehicle (distilled water). The medium was renewed every other day. After the end of culture, the skin explants were sampled and put in formalin before being dehydrated and embedded in paraffin for Fontana-Masson staining.
Skin explants fixed in formalin were dehydrated and embedded in paraffin. Sections of 4 μm thickness were dewaxed and then stained by Fontana-Masson silver method for melanin.
Images were collected using an Axio Observer Inverted fluorescence microscope (Zeiss) in bright field mode.
Melanin was quantified using two open source optical imaging software programs. Photomicrographs (jpeg format) of Fontana-Masson tissue sections were opened in GIMP-GNU Image Manipulation Program. The brown-black color signals corresponding to melanin grains on stained sections were selected, copied and pasted into a new image and saved as a jpeg file; this jpeg file consists solely of black/brown (melanin grains) on a white background. This image was subsequently opened using the ImageJ program. The image was then inverted and the mean intensity was obtained.

[2] = test system: Lactobacillus acidophilus; settings: 1%, culture supernatant, NMR, vs untreated
Description: The supernatants of the cultures previously described in Example 10, both of the untreated strain culture and the culture of L. acidophilus treated with 1% EGCG MONOG were kept and frozen at −80° C. before analysis using high-field NMR. For each of these two conditions, three samples were analyzed to assess the tests reproducibility (n=3).
For each sample, 400 μl of supernatant were taken and 100 μl of D2O/TSP (3-(trimethylsilyl)propionic-2,2,3,3-d4 acid sodium salt, internal reference) were added at a concentration of 1 g/l. The samples were analyzed by high field ^1H NMR on a Bruker ASCEND 500 spectrometer operating at a proton frequency of 500 MHz using a 5 mm cryosonde probe. NMR spectra were calibrated to TSP-d4 at 0 ppm using Topspin software version 4.3.0 (Bruker Biospin, Germany). Quantification of metabolites was performed by utilizing the internal standard (TSP-d4) added at a known concentration. Compounds were quantified by the relative ratio of the intensities of their peak integrals and those of the internal standard.

[3] = test system: female volunteers with a dark skin type (phototype IV or more) and dull skin; experiment: Clinical evaluation on African skin: skin color by Chromameter L* parameter; format: in vivo, human; settings: cream 0.4%, full face twice daily; for increase of L* on uneven skin tone area: dark skin type
Description: The clinical study was carried out on 85 female volunteers aged from 19 to 47 years, which were divided in three groups: active, placebo and aglycone. The study was performed in South Africa on female volunteers with a dark skin type (phototype IV or more) and dull skin. All participants provided signed informed consent at the beginning of the study. The study was conducted according to the guidelines of the Declaration of Helsinki. […] Skin color evolution was measured after 14, 28 and 56 days using L* parameter measurement by Chromameter®.
The skin color was evaluated by means of a Chromameter CR400, which measures skin color, and the parameter L* (lightness) was recorded. The greater the value, the lighter the skin color. Depending on the test type, at least three or at least 15 readings were taken at each test sub-site for each time interval to serve as the specific pigmentation sport color measurement component of the study. Skin color was analyzed at D0, D14, D28 and D56.
For all studies in vivo, a Shapiro Wilk test was used to verify whether the raw data followed the Gaussian Law. In case of Normally-distributed data, the mean values were compared using either an unpaired or paired t student test. In case of non-Normally-distributed data, a Wilcoxon (paired) and Kruskal-Wallis test followed by a Mann-Whitney U (unpaired) test were used for paired data and unpaired data, respectively.

[4] = cream with 2% ascorbic acid, Asian women, D 28
[5] = cream with 2% ascorbic acid, Asian women, D 56

Row | SMILES | Firmness effect (R0) Mean +/− SD ([1]; cream with 2% ascorbic acid, Asian women, D 0 (baseline)) [arbitrary unit] | Firmness effect (R0) Average variation (%) vs D 0 [1, 4] [%] | Firmness effect (R0) Mean +/− SD [1, 4] [arbitrary unit] | Firmness effect (R0) Average variation (%) vs D 0 [1, 5] [%] | Firmness effect (R0) Mean +/− SD [1, 5] [arbitrary unit] | reduction of melanin content compared to untreated (human skin explants) [%] | decrease of consumption of sugars by L. acidophilus [2] [%] | increase of Trigonelline released by L. acidophilus [2] | increase of polysorbate consumption by L. acidophilus [2] [%] | improvement of skin firmness relative to the placebo cream ([1]; active cream 0.4%, Asian women) | Firmness effect (R0) Average variation (%) vs D 0 ([1]; active cream 0.4%, Asian women, D 28) [%] | Firmness effect (R0) Average variation (%) vs D 0 ([1]; active cream 0.4%, Asian women, D 56) [%] | improvement of skin firmness, times better than placebo ([1]; after 56 days) | increase of L*, global skin color, 15 measurements on hemi face ([3]; dark skin type, 14, 28 and 56 days) | increase of L* on uneven skin tone area ([3]; after 14 days) | increase of L* on uneven skin tone area ([3]; after 28 days) | increase of L* on uneven skin tone area ([3]; after 56 days)
1 | O=C1O[C@H]([C@@H](O)CO)C(O)=C1O [Ascorbic acid, ascorbic acid] | 0.283 ± 0.036 | −6.9 | 0.263 ± 0.032 | −6.5 | 0.264 ± 0.046 | 28 |  |  |  |  |  |  |  |  |  |  | 
2 | O=C(O[C@@H]1Cc2c(O)cc(O)cc2O[C@@H]1c1cc(O)c(O[C@H]2O[C@H](CO)[C@@H](O)[C@H](O)[C@H]2O)c(O)c1)c1cc(O)c(O)c(O)c1 [epigallocatechin gallate 4′-O-α-monoglucoside] |  |  |  |  |  |  | 17 | up to 65% | 51 | up to 21 fold | ~8.7 | −8.2 | up to 21 times | up to +6.8% | +1.3% | +4.7% | +6.3%
